# PubChem BioAssay (NCI)
#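 Five compound concentrations were applied to cells in 96-well plates for 48 hours; endpoints were derived by simple linear interpolation of the resulting dose-response curve. GI50: concentration for 50% inhibition of growth. Definition used: TGI = concentration required for complete inhibition of growth.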
# How the values were obtained:
# Assay in all cases: inhibition of tumour cell growth, NCI panel, 48 h
# [1] = test system: HCT-116 colon
# [2] = test system: LOX IMVI melanoma
# [3] = test system: OVCAR-8 ovarian
# [4] = test system: SK-MEL-5 melanoma
# [5] = test system: SK-OV-3 ovarian
# [6] = test system: SNB-75 CNS
# [7] = test system: SR leukemia
# [8] = test system: SW-620 colon
# [9] = test system: HS 578T breast
# [10] = test system: PC-3 prostate
Compound,TGI [1] [µM],TGI [2] [µM],TGI [3] [µM],TGI [4] [µM],TGI [5] [µM],TGI [6] [µM],TGI [7] [µM],TGI [8] [µM],GI50 [1] [µM],GI50 [9] [µM],TGI [9] [µM],GI50 [2] [µM],GI50 [3] [µM],GI50 [10] [µM],TGI [10] [µM],GI50 [4] [µM],GI50 [5] [µM],GI50 [8] [µM],GI50 [6] [µM],GI50 [7] [µM]
CCCCCCCC(=O)OCC1OC(n2cc(F)c(=O)[nH]c2=O)C(NC(=O)OCc2ccccc2)C(OC(=O)CCCCCCC)C1O (centres undefined),> 100,29.7,> 100,11.1,> 100,> 100,64,> 100,,,,,,,,,,,,
O=C(Nc1ccc(Cl)cc1)c1cc2cc(F)ccc2cc1O,6.66,10.7,> 100,1.52,5.76,,,> 100,0.963,3.03,> 100,2.11,2.93,1.94,> 100,0.417,1.08,2.49,,
COc1ccc(C(=O)C(Br)C(Br)C(=O)O)cc1 (centres undefined),44.9,54,> 100,> 100,> 100,> 100,,52.3,,,> 100,,,,> 100,,,,,
CC1Cc2c(N)nc(N3CCOCC3)nc2NC1=O (centres undefined),> 100,> 100,> 100,> 100,> 100,> 100,,> 100,,,,,,,,,,,,
CC(=O)O[C@H]1CCC2[C@@H]3CCC4Nc5c(cnn5-c5ccccc5)C[C@]4(C)C3CC[C@@]21C (some centres undefined),27.5,25.4,39.6,22,42.4,20.2,,31.3,,,,,,,,,,,,
O=C1NC(=O)C(=O)C(c2nc3ccccc3s2)C1=O,> 100,,> 100,> 100,> 100,> 100,> 100,> 100,,,,,,,,,,,,
COc1cc2c(=O)n(CCCn3ccnc3)c3c4cc5c(cc4ccc3c2cc1OC)OCO5,,,41.9,,11.3,9.45,> 100,> 100,,2.33,> 80.6,,1.46,0.774,> 100,,0.443,0.49,0.298,0.203
CCN(CC)C(=O)CNC(=O)OC(C)(C)C,> 100,> 100,> 100,> 100,> 100,> 100,,> 100,,,,,,,,,,,,
CC(C(=O)c1ccccc1)C1(O)C(=O)Nc2ccccc21 (centres undefined),> 100,> 100,,> 100,> 100,> 100,> 100,> 100,,,,,,,,,,,,
C/C=C1\C(=O)O[C@@H]2C1C[C@@H]1O[C@H]2[C@H](C)CCC/C(C)=C/CC[C@@]1(C)O (some centres undefined),10.1,21.5,6.76,9.4,37.4,33.4,> 100,15,2.81,,,5.8,2.52,11.8,25.8,3.03,14.1,4.14,9.81,2.41
COC1CC2C=CC3C4OC2(/C(C)=C/C(C)C(C(C)O)OC1=O)C3C(O)C(C)C4OC(=O)c1ccc[nH]1 (centres undefined),> 100,> 100,> 100,> 100,,,77,> 100,,,> 100,,,,> 100,,,,,
O=C1/C(=C/c2ccccc2Br)COc2ccc(O)c(O)c21,2.78,2.32,12.2,3.01,15,6.92,,4.44,1.31,3.28,21.5,1.03,1.31,1.04,9.89,1.63,3.95,1.34,1.47,
NCC1OC(n2cnc3c(=O)[nH]c(N)nc32)C(O)C1O (centres undefined),> 100,> 100,> 100,> 100,> 100,> 100,,> 100,,,> 100,,,,> 100,,,,,
O=C(COc1ccc(Cl)cc1)N1N=C(c2ccc([N+](=O)[O-])o2)CC1(O)c1ccccc1 (centres undefined),17.9,23.8,23.6,,47.3,,23.8,21.5,,,,,,,,,,,,
NCCCn1c2c(c3cc4c(cc3c1=O)OCO4)C(=O)c1ccccc1-2,0.554,> 100,1.14,0.656,> 100,,,,,1.88,4.4,0.14,0.142,0.134,0.6,0.215,10.5,,,
CC(Oc1ccc(OCC2CCCCC2)cc1)C(=O)O (centres undefined),> 100,> 100,> 100,> 100,> 100,> 100,,> 100,,,,,,,,,,,,
CCOC(=O)CNC1C(NC(C)=O)C(OC)OC2COC(c3ccccc3)OC21 (centres undefined),> 100,> 100,> 100,> 100,> 100,> 100,,> 100,,,,,,,,,,,,
O=C1C(Cl)=C(Nc2cccc(O)c2)C(=O)N1c1cccc(Cl)c1,> 100,51.1,> 100,> 100,> 100,,> 100,> 100,21.7,29.3,> 100,22.4,27.2,21.4,> 100,50.4,56.5,39,,27
CC(C)c1cccc(C(C)C)c1N=C(N)C#N,> 58.6,> 56.2,> 100,> 100,> 100,> 100,> 90,58.5,,,,,,,,,,,,
